US20120328696A1, “ANTI-PARKINSONIAN COMPOUND ACETYLSALICYLIC ACID MALTOL ESTER” (Hutecs Korea Pharmaceutical Co., Ltd., priority 2008, published 2012)

Experiments:
Format in all cases: in vivo
[1] = system: reactive oxygen species (ROS); experiment: Striatal ROS formation after MA; conditions: striatum, 3 days after final MA; p.o.; AME 50, EBS 20, rottlerin 20 mg/kg; GPx-1 (+/+) and (−/−) mice
Description: (§1) The mice received four times of MA (8 mg/kg, ip) or saline as a 2 hr-time interval. Chemicals (AME, EBS, and PKC inhibitors) were administrated for 5 consecutive days (twice daily), and were given 2 times at 4 hr and 30 min before the first MA injection as shown in the experimental schedule. Animals were sacrificed at 4 hrs and 3 days after the final MA administration.
The extent of reactive oxygen species (ROS) formation in the striatum was assessed by measuring the convertion from 2′,7′-dichlorofluorescin diacetate (DCFH-DA) to dichlorofluoresin (DCF) as describe by Bourre et al., (2002) with slight modification. Brain homogenates were added to a tube containing 2 ml of PBS with 10 nmole of DCFH-DA, dissolved in methanol. Mixture were incubated at 37° C. for 3 hours and then measured the absorbance at 480 nm excitation and 525 nm emission. DCF is used as a standard.

[2] = system: glutathione peroxidase (GPx)-1; experiment: Striatal GPx-1-like immunoreactivity after MA; conditions: p.o.; AME 50, EBS 20, rottlerin 20 mg/kg; MA 8 mg/kg i.p. x4; GPx-1 (+/+) mice
Description: as §1
Animals were sacrificed at 4 hours and 3 days after the last MA injection. They were anesthetized with 60% urethane and perfused transcardially with 50 ml of 50 mM phosphate buffered saline (PBS), followed by 50 ml of a mixture of 4% paraformaldehyde in PBS. The rate of perfusion was 50 ml/min. The brains were removed, post-fixed at 4° C. for 24 h in the same fixative and then cryoprotected in 30% sucrose in PBS. The brains were cut on a horizontal sliding microstome into 40 μm transverse free-floading sections (Kim et al., 1999).
The immunocytochemistry was performed as described previously (Kim et al., 2000a, b). Briefly, prior to incubation with the primary antibodies, sections were preincubated with 0.3% hydrogen peroxide in PBS for 30 min (to block endogenous peroxidase activity), then in PBS containing 0.4% Triton X-100 for 20 min and 1% normal serum for 20 min. The sections were then incubated for 48 h at 4° C. in primary antibody against tyrosine hydroxylase (1:500, Chemicon, Termecula, Calif., USA), GPx1 (1:500, AbFrontier, Seoul, Korea), PKC (1:200, Santa Cruz biotechnology INC, CA, USA) or F4/80 (1:50, Serotec, Raleigh, N.C., USA). The sections were further incubated with secondary biotinylated antisera (1:1000 dilution; Vector, Brulingame, Calif.) for 1 hr, and immersed in avidin-biotin-peroxidase complex (ABC Elite kit, Vector) for 1 hr. Sections were always washed three times with PBS (pH 7.4) between each incubation step. 3,3′-diaminobenzidine (DAB) was used as a chromogen.
The western blot assays was performed as described previously (Kim et al., 2003). […]

[3] = system: dopamine (DA), DOPAC, HVA; experiment: Striatal DA, DOPAC and HVA after MA (HPLC); conditions: p.o.; AME 50, EBS 20, rottlerin 20 mg/kg; MA 8 mg/kg i.p. x4; GPx-1 (+/+) and (−/−) mice
Description: as §1
At 3 day after last MA injection, mice were killed by cervical dislocation and the brains were removed. Striatum was dissected and immediately frozen on dry ice, and stored at −70° C. until extraction. Striatum obtained from each animal was weighed, ultrasonicated in 10% perchloric acid containing 10 ng/mg of the internal standard dihydroxybenzylamine, and centrifuged at 20,000×g for 10 min. The levels of DA and its metabolites 3,4-dihydroxyphenylacetic acid (DOPAC) and homovanillic acid (HVA) in brain tissue extracts were determined by HPLC coupled with electrochemical detection as described (Kim et al., 1999). The 20 μl aliquot of the supernatant was injected into the HPLC equipped with a 3 μm C18 column. The mobile phase was comprised of 26 ml of acetonitrile, 21 ml of tetrahydrofuran and 960 ml of 0.15M monochloroacetic acid (pH 3.0) containing 50 mg/l of EDTA and 200 mg/l of sodium octyl sulfate. The amount of DA, DOPAC and HVA were determined by comparison of peak area of tissue sample with standard, and were expressed in nanograms per gram of wet tissue.

Row | Compound | effect on MA-induced increase in ROS [1] | effect on MA-induced decrease in striatal GPx-1-IR [2] | effect on MA-induced change in DA turnover rate [3] | effect on MA-induced change in striatal DA level [3] | effect on MA-induced change in striatal DOPAC level [3] | effect on MA-induced change in striatal HVA level [3]
1 | O=c1c2ccccc2[se]n1-c1ccccc1 [EBS, 2-phenyl-1,2-benzisoselenazol-3(2H)-one] | significantly attenuated | inhibited MA-induced decrease in the GPx-1-IR | significantly attenuated MA-induced dopaminergic impairment | significantly attenuated MA-induced dopaminergic impairment | significantly attenuated MA-induced dopaminergic impairment | significantly attenuated MA-induced dopaminergic impairment
2 | CC(=O)c1c(O)c(C)c(O)c(Cc2c(O)c3c(c(C(=O)/C=C/c4ccccc4)c2O)OC(C)(C)C=C3)c1O [rottlerin] | significantly attenuated | inhibited MA-induced decrease in the GPx-1-IR | significantly attenuated MA-induced dopaminergic impairment | significantly attenuated MA-induced dopaminergic impairment | significantly attenuated MA-induced dopaminergic impairment | significantly attenuated MA-induced dopaminergic impairment
3 | CC(=O)Oc1ccccc1C(=O)Oc1c(C)occc1=O [AME, 3-(2-methyl-4-pyronyl)-2-acetyloxybenzoate] | significantly attenuated | inhibited MA-induced decrease in the GPx-1-IR | significantly attenuated MA-induced dopaminergic impairment | significantly attenuated MA-induced dopaminergic impairment | significantly attenuated MA-induced dopaminergic impairment | significantly attenuated MA-induced dopaminergic impairment
